From patent US20050020559A1, “Chlorin photosensitizing agents for use in photodynamic therapy” (priority 2001, published 2005)

Key:
[1] = tested on: corneal neovessels; experiment: Experimentally induced corneal neovascularization (N-heptanol scrub): PDT closure of corneal neovessels, fluorescein angiography out to 28 days; assay type: in vivo, Sprague Dawley rats; conditions: corneal neovessels induced by n-heptanol scrub, rats; light dose 20 J/cm^2 at optimal excitation wavelength; optimal drug dose and time interval per compound; grade by corneal fluorescein angiography (neovessel-free area)
Procedure: The chlorin e6molecules were evaluated in a series of preclinical ocular neovessel models, corneal neovascularization, normal choriocapillaris vessels, and choroidal neovascularization. […] The chemical scrub was used to remove the corneal epithelium and stem cells, allowing the neovessels to grow across the entire cornea. PDT was performed at approximately 3 weeks after the chemical scrub when the neovessels formed a uniform network across the cornea. The PDT treatment was applied to the corneal surface with a laser wavelength that was optimized for the given absorption spectrum. The laser energy was coupled through a slit lamp biomicroscope with a slit lamp adapter. A 3.0 mm spot size was used (Area=7.07 mm^2). The light dose delivered was varied from 5-25 J/cm^2. The efficacy of neovessel closure was evaluated by measuring the area of treated cornea that remained neovessel-free out to 28 days following PDT. Accurate area measurements were taken using fluorescein angiography and measuring the area of neovessel-free cornea.

[2] = tested on: choriocapillaris; experiment: Normal choriocapillaris rabbit model: PDT vessel closure out to 28 days, fluorescein angiography; assay type: in vivo; conditions: pigmented rabbit, intravenous, light dose 20 J/cm^2, optimal drug dose and time interval per compound, grade by fluorescein angiography
Procedure: The chlorin e6molecules were evaluated in a series of preclinical ocular neovessel models, corneal neovascularization, normal choriocapillaris vessels, and choroidal neovascularization.
Selected chlorin e6 molecules were also evaluated in a normal choriocapillaris model in the pigmented rabbit. […] The selected photosensitizers were administered intravenously at varying drug doses, the light dose was set constant at 20 J/cm^2, and the time interval was varied from 5-30 minutes between drug and light administration. Two PDT treatment areas were placed on the fundus of each eye in each rabbit. Fluorescein angiography was used to evaluate vessel closure following PDT out to 28 days.

[3] = tested on: choroidal neovascularization lesions; experiment: Laser-induced choroidal neovascularization (CNV) model: PDT closure of CNV lesions, fluorescein angiography and histopathology; assay type: in vivo, rats
Procedure: Two of the chlorin e6molecules, (39) and (106), were evaluated in a laser-induced choroidal neovascularization (CNV) model in rats. Laser photocoagulation was used to stimulate choroidal neovessel growth on the fundus of the rat (E. T. Dobi, C. Puliafito, M. A. Destro, “A new model of experimental choroidal neovascularization in the rat”, Arch. Ophthalmol. 1989; 107: 264-269). The PDT treatments were performed approximately 4 weeks after the laser photocoagulation, which was when the choroidal neovascularization lesions were fully developed. The lesions were PDT treated using a 1.2 mm spot which covered the entire CNV lesion. Fluorescein angiography and histopathology were used to evaluate the CNV closure.

Compound | Extent of neovessel closure at 28 days after treatment [1] | Closure at 28 Days [2] | CNV closure (fluorescein angiography) ([3]; 0.8 & 1.6 μmoles/kg, 10-20 minutes time interval post injection, 7 days after PDT) | CNV closure (fluorescein angiography) ([3]; 0.75 μmoles/kg, 20 minutes time interval post injection, 7 days post PDT)
C=Cc1c(C)c2cc3nc(c(CC(=O)OC)c4[nH]c(cc5nc(cc1[nH]2)C(C)=C5CC)c(C)c4C(=O)NCCCO)C(CCC(=O)OC)C3C (centres unmarked) [Compound 30, 3-[[(3-hydroxypropyl)amino]carbonyl]-13-ethenyl-18-ethyl-7,8-dihydro-5-(2-methoxy-2-oxoethyl)-2,8,12,17-tetramethyl-21H, 23H-Porphine-7-propionic acid, methyl ester] | 2 (2 = 1.1-2.0 mm^2) | 3 (3 = 51-75%) | – | –
C=Cc1c(C)c2cc3nc(c(CC(=O)OC)c4[nH]c(cc5nc(cc1[nH]2)C(C)=C5CC)c(C)c4C(=O)NCCCOC(C)=O)C(CCC(=O)OC)C3C (centres unmarked) [Compound 34, 3-[[(3-acetoxypropyl)amino]carbonyl]-13-ethenyl-18-ethyl-7,8-dihydro-5-(2-methoxy-2-oxoethyl)-2,8,12,17-tetramethyl-21H, 23H-Porphine-7-propionic acid, methyl ester] | 1 (1 = 0.21-1.0 mm^2) | 3 (3 = 51-75%) | – | –
C=Cc1c(C)c2cc3nc(c(CC(=O)OC)c4[nH]c(cc5nc(cc1[nH]2)C(C)=C5CC)c(C)c4C(=O)NCCOCCO)C(CCC(=O)OC)C3C (centres unmarked) [Compound 39, 3-[[(5-hydroxy-3-oxa-pentyl)amino]carbonyl]-13-ethenyl-18-ethyl-7,8-dihydro-5-(2-methoxy-2-oxoethyl)-2,8,12,17-tetramethyl-21H, 23H-Porphine-7-propionic acid, methyl ester] | 1 (1 = 0.21-1.0 mm^2) | 4 (4 > 75%) | closed the CNV lesion | –
C=Cc1c(C)c2cc3nc(c(CCO)c4[nH]c(cc5nc(cc1[nH]2)C(C)=C5CC)c(C)c4C(=O)NCCOCCO)C(CCCO)C3C (centres unmarked) [Compound 43, 7-(3-hydroxypropyl)-3-[[(5-hydroxy-3-oxa-pentyl)amino]carbonyl]-13-ethenyl-18-ethyl-7,8-dihydro-5-(2-hydroxyethyl)-2,8,12,17-tetramethyl-21H, 23H-Porphine] | 1 (1 = 0.21-1.0 mm^2) | – | – | –
C=Cc1c(C)c2cc3nc(c(CC(=O)OC)c4[nH]c(cc5nc(cc1[nH]2)C(C)=C5CC)c(C)c4C(=O)NCCOCCOC(C)=O)C(CCC(=O)OC)C3C (centres unmarked) [Compound 45, 3-[[(5-acetoxy-3-oxa-pentyl)amino]carbonyl]-13-ethenyl-18-ethyl-7,8-dihydro-5-(2-methoxy-2-oxoethyl)-2,8,12,17-tetramethyl-21H, 23H-Porphine-7-propionic acid, methyl ester] | 1 (1 = 0.21-1.0 mm^2) | 3 (3 = 51-75%) | – | –
CCC1=C(C)c2cc3[nH]c(cc4nc(c(CC(=O)OC)c5[nH]c(cc1n2)c(C)c5C(=O)NCCCO)C(CCC(=O)OC)C4C)c(C)c3C(C)=O (centres unmarked) [Compound 101, 3-[[(3-hydroxypropyl]amino]carbonyl]-13-acetyl-18-ethyl-7,8-dihydro-5-(2-methoxy-2-oxoethyl)-2,8,12,17-tetramethyl-21H, 23H-Porphine-7-propionic acid, methyl ester] | 0 (0 = 0-0.2 mm^2) | – | – | –
CCC1=C(C)c2cc3[nH]c(cc4nc(c(CC(=O)OC)c5[nH]c(cc1n2)c(C)c5C(=O)NCCOCCO)C(CCC(=O)OC)C4C)c(C)c3C(C)=O (centres unmarked) [Compound 106, 3-[[(5-hydroxy-3-oxa-pentyl)amino]carbonyl]-13-acetyl-18-ethyl-7,8-dihydro-5-(2-methoxy-2-oxoethyl)-2,8,12,17-tetramethyl-21H, 23H-Porphine-7-propionic acid, methyl ester] | 1 (1 = 0.21-1.0 mm^2) | 4 (4 > 75%) | – | demonstrated CNV closure
